# From patent US4761398A, “Method of inducing birds to molt” (Embrex, Inc., priority 1986, dated 1988)
# Key:
# [1] = tested on: single combed White Leghorn hens; assay: Hen-day egg production; type: in vivo
# Description: During the experiment, two birds were assigned to each cage (12"×18"). The hens were maintained in their cages for two weeks prior to the molt. They received a 17 hour light: 7 hour dark photoperiod throughout this phase of the experiment. During this time, the following parameters were measured:(a) body weight (weekly); (b) feed consumption (all hens received a common layer ration, and the feed consumed during this two week period was measured); (C) production records (daily); and (d), total egg weight, egg shell weight, and egg specific gravity (measured on three consecutive days each week). Serum samples were taken once, from 10 randomly selected hens from each treatment group, and saved for future study.
# After the two week pre-molt adjustment period, the hens were randomly assigned to each of eight different groups. These treatment groups were as follows: (1) control, (2) forced molt, (3) chemical molt-injected, (4) vehicle control-injected, (5) chemical molt-microcapsules A, (6) vehicle control-microcapsules A, (7) chemical molt-microcapsules B, and (8) vehicle control-microcapsules B.
# The hens then received a seven day pre-molt treatment of a 24 hour light, zero hour dark photoperiod. On day 14 of the experiment the photoperiod was then reduced to natural day length for all treatments. Feed was made available ad libitum for all groups except the forced molt group. The forced molt group was deprived of food, but not of water, until a 30% body weight loss occurred (10 days of fasting).
# [D-Trp^6 ]LHRH was used as the LHRH receptor ligand for the chemical molt groups. The "chemical molt-injected" group received intramuscular (breast) injections of 25 micrograms/day of [D-Trp^6 ]LHRH for 10 consecutive days beginning on day 14. Alternate pectoral (breast) areas were injected each day. The "chemical molt-microcapsule" groups received a single intramuscular (breast) injection of microencapsulated [D-Trp^6 ]LHRH on day zero. This preparation of microcapsules provided a controlled release of 25 micrograms [D-Trp^6 ]LHRH per day for 15 consecutive days.
# On day 14, the microcapsule injected groups received intramuscular injections of lactide/glycolide copolymer microcapsules which had [D-Trp^6 ]LHRH incorporated therein. The ligand-containing microcapsules administered the "Microcapsules A" group were prepared and supplied by Debiopharm (Lausanne, Switzerland). These microcapsules were prepared by a phase-separation process to produce a free-flowing powder of spherical particles consisting of [D-Trp^6 ]LHRH (2% wt/wt) distributed within a polymeric matrix of 53:47(mol %) poly(DL-lactide-co-glycolide) (98% wt/wt) with an inherent viscosity of 0.7 dl/g. The microcapsules were 50 micrometers or less in diameter. […] Photomicrographs of similar microcapsules are presented in T. W. Redding, et al., Proc. Natl. Acad. Sci. U.S.A., 81, 5845 (Sept. 1984).
# Microcapsules were suspended in disposable syringes in vehicle containing 2% carboxymethyl cellulose and 1% "TWEEN 20" in water. After thoroughly mixing the suspension, aliquots calculated to have released a dose of 25 micrograms/day for 15 consecutive days were injected into the breast muscle of the hens. We weighed the microcapsules directly into disposable 3 ml syringes. The plunger of a plugged syringe containing microcapsules (without vehicle) was pulled back to the 1.5-2 cc mark. The hub of the syringe was then placed against a vortex mixer and the syringe vortexed rapidly for about 20 seconds, or until most of the clumps of microbeads were broken and distributed along the barrel of the syringe. An 18 gauge needle was then attached and 0.7 to 1.0 ml of […] injection vehicle was drawn into the syringe. With the needle in an upward position, the syringe was again placed against a vortex mixer and vortexed rapidly for 20 seconds, or until a suspension of microbeads was formed in the vehicle. […]
# LHRH receptor = target: T1, LHRH receptor (Homo sapiens, UniProt P30968); conditions: described in U.S. Pat. No. 4,010,125; cited from earlier work
# T1 sequence (P30968 1-328): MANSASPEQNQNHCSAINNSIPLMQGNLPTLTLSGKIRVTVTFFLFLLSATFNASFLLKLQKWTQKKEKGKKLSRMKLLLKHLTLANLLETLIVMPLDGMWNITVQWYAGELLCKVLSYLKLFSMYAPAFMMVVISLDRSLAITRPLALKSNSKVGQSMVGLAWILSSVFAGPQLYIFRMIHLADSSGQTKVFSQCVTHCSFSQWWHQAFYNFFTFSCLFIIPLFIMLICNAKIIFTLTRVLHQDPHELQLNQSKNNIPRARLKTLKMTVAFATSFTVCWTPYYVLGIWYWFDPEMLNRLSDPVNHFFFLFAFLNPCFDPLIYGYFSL
substance,measurement,setting,value
[D-Trp^6 ]LHRH [D-Trp^6 --LHRH],HEN-DAY EGG PRODUCTION Reported By Weeks,[1]; listed as Day 5,61.508%
same,HEN-DAY EGG PRODUCTION Reported By Weeks,[1]; listed as Day 12,26.984%
same,HEN-DAY EGG PRODUCTION Reported By Weeks,[1]; listed as Day 17,4.683%
same,HEN-DAY EGG PRODUCTION Reported By Weeks,[1]; listed as Day 22,7.619%
same,HEN-DAY EGG PRODUCTION Reported By Weeks,[1]; listed as Day 27,30.000%
same,HEN-DAY EGG PRODUCTION Reported By Weeks,[1]; listed as Day 33,58.095%
same,HEN-DAY EGG PRODUCTION Reported By Weeks,[1]; listed as Day 40,63.333%
same,HEN-DAY EGG PRODUCTION Reported By Weeks,[1]; listed as Day 47,67.143%
same,HEN-DAY EGG PRODUCTION Reported By Weeks,[1]; listed as Day 54,76.667%
same,HEN-DAY EGG PRODUCTION Reported By Weeks,[1]; listed as Day 61,80.000%
same,HEN-DAY EGG PRODUCTION Reported By Weeks,[1]; listed as Day 75,76.667%
same,HEN-DAY EGG PRODUCTION Reported By Weeks,[1]; listed as Day 82,73.889%
same,HEN-DAY EGG PRODUCTION Reported By Weeks,[1]; listed as Day Zero,63.889%
same,duration of activity,LHRH receptor,prolonged activity
